Laboratory results as given in publication PMC11508334, “In Vitro Evaluation of New 5-Nitroindazolin-3-one Derivatives as Promising Agents against Trypanosoma cruzi” (International Journal of Molecular Sciences, 2024).

Columns and labels:
RAW 264.7 cells = assay: Cytotoxicity MTT assay on RAW 264.7 cells; assay type: cell-based; settings: Mus musculus, RAW264.7, in vitro cytotoxicity, murine RAW 264.7 macrophages
Procedure: The compounds under study, dissolved in dimethylsulfoxide (DMSO), were added to the culture media at 10–200 μM. RAW 264.7 cells were cultured in 96-well plates (5 × 10^4 cells per well), and 100 μL of 0.5 mg/mL MTT was added to each well. The DMSO final concentration was less than 0.1% v/v. After incubation for 4 h at 37 °C, the generated water-insoluble formazan dye was dissolved by adding 100 μL of 10% w/v sodium dodecyl sulfate (SDS) in 0.01 M HCl. The plates were further incubated overnight at 37 °C; […] 0.5% of Triton X-100 was added as a positive control. The plates were further incubated overnight at 37 °C, and the optical density of the wells was determined using a microplate reader (Asys Expert Plus©, Asys Hitachi, Vienna, Austria) at 570 nm. Under these conditions, the optical density is directly proportional to the viable cell number in each well. All experiments were performed at least thrice and data were reported as means and their standard deviations from triplicate cultures. Results are reported as IC50 regarding the control (uninfected cells in culture medium)

[1] = test system: T. cruzi epimastigote stage (Dm28c strain); assay: Epimastigotes viability study (MTT); assay type: cell-based, Trypanosoma cruzi; settings: for IC50: Trypanosoma cruzi, T. cruzi Dm28c epimastigotes, 24 h, MTT; for SI Epimastigote: Selectivity Index IC50 macrophages RAW 264.7/IC50 epimastigotes Dm28c
Procedure: The trypanocidal activity was evaluated against the T. cruzi epimastigote stage (Dm28c strain). It was measured through the MTT assay using 0.22 mg/mL phenazine methosulfate (as an electron carrier). T. cruzi epimastigote from the author's collection (Programa de Farmacología Molecular y Clínica, Facultad de Medicina, Universidad de Chile, Santiago, Chile) were grown at 28 °C in liver infusion tryptase (LIT) medium, as reported earlier, but replacing blood with 4 μM hemin. […] fetal bovine serum (FBS) was added to a final concentration of 10% v/v. In this colorimetric assay for testing the trypanocidal activity, the compounds were dissolved in DMSO. They were added to 3 × 10^6 parasites/mL at 100 μM final concentrations in RPMI 1640 culture medium without phenol red for 24 h at 28 °C. The final concentration of DMSO was less than 0.1% v/v. […] The MTT assay, which was described previously, determined the viability of the epimastigotes.

[2] = Cyclic voltammetry, reduction of nitro group; assay type: physicochemical; settings: for −EpaIII: anodic peak potential of couple IIIc/IIIa; for −EpaIII / −EpcIII / −E1/2: given with inverted sign, vs. Ag/AgCl electrode in DMSO; for −EpcIII: cathodic peak potential of couple IIIc/IIIa; for Ipa/Ipc: current ratio RNO2/RNO2•−, couple IIIc/IIIa, DMSO; for −E1/2: half-wave potential of couple IIIc/IIIa
Procedure: Cyclic Voltammetry (CV) was carried out using a Metrohm Autolab instrument model PGSTAT204, using dimethyl sulfoxide (DMSO) as the solvent (1 mM solutions), tetrabutylammonium perchlorate (0.1 M TBAP) as the supporting electrolyte, a hanging drop mercury electrode (HDME) as the working electrode, Ag/AgCl (3M KCl) as the reference electrode, and a graphite rod as the counter electrode. All measurements were performed after bubbling with nitrogen (N2) for 10 min.
Using Nicholson’s procedure, the Ipa/Ipc values (RNO2/RNO2^•−) were measured from each cyclic voltammogram with a scan rate between 0.1 and 2.5 V/s.

Dm28c trypomastigotes = assay: Trypomastigote viability study (MTT); assay type: cell-based, Trypanosoma cruzi; settings: for IC50: Trypanosoma cruzi, T. cruzi Dm28c trypomastigotes, 24 h, MTT; for SI Trypomastigote: Selectivity Index IC50 macrophages RAW 264.7/IC50 trypomastigotes Dm28c
Procedure: Vero cells (ATCC CCL-81) were infected with Dm28c trypomastigotes at a 1:3 (cell: parasite) ratio. T. cruzi trypomastigotes were initially obtained from primary cultures of peritoneal macrophage from chagasic mice. […] Vero cell cultures were then infected with trypomastigotes and incubated at 37 °C in humidified air and 5% CO2 for 5–7 days. After that time, the culture medium was collected and centrifuged at 500× g for 5 min. The trypomastigote-containing pellet was re-suspended in RPMI 1640 supplemented with inactivated FBS and penicillin–streptomycin at a final 1 × 10^7 parasites/mL density. Trypomastigote viability assays were performed using the MTT reduction method as described previously. Then, 1 × 10^7 parasites/mL was incubated in RPMI 1640 with inactivated FBS at 37 °C for 24 h with or without the studied compounds.

IC50 [1] [µM]	−EpaIII [2] [V]	−EpcIII [2] [V]	Ipa/Ipc [2]	−E1/2 [2] [V]	melting point [°C]	Structure (SMILES)	IC50 (RAW 264.7 cells) [µM]	IC50 (Dm28c trypomastigotes) [µM]	SI Epimastigote [1]	SI Trypomastigote (Dm28c trypomastigotes)
> 100	1.28	1.38	0.67	1.33	–	O=[N+]([O-])c1ccc2c(c1)c(O)nn2CCCCCO [Compound 20]	> 200	> 100	–	–
43.7 ± 2	1.02	1.10	0.96	1.06	179 to 181	Cn1c2ccc([N+](=O)[O-])cc2c(=O)n1Cc1ccccc1Cl [Compound 9, 2-(2-Chlorobenzyl)-1-methyl-5-nitro-1,2-dihydro-3H-indazol-3-one]	176 ± 2.3	61.6 ± 1.4	4.0	2.8
46.9 ± 3.4	1.27	1.37	0.63	1.32	–	O=c1c2cc([N+](=O)[O-])ccc2[nH]n1-c1ccccc1 [Compound 4]	97.5 ± 1.2	63.4 ± 1.4	2.1	1.5
36.4 ± 0.8	0.99	1.14	1.00	1.07	139 to 141	Cn1c2ccc([N+](=O)[O-])cc2c(=O)n1Cc1ccc(F)cc1 [Compound 8, 2-(4-Fluorobenzyl)-1-methyl-5-nitro-1,2-dihydro-3H-indazol-3-one]	116 ± 1.7	57.8 ± 1.3	3.2	2.0
> 100	1.28	1.35	0.65	1.32	–	Cn1nc(O)c2cc([N+](=O)[O-])ccc21 [Compound 19, 1-methyl-5-nitroindazol-3-ol]	> 200	> 100	–	–
84.3 ± 2.1	1.27	1.37	0.56	1.32	–	O=[N+]([O-])c1ccc2c(c1)c(O)nn2CCCCCCCl [Compound 21]	> 200	91.2 ± 2.2	>2.4	>2.1
83.9 ± 1.9	0.99	1.20	0.94	1.10	144 to 146	Cn1c2ccc([N+](=O)[O-])cc2c(=O)n1Cc1ccc(Br)cc1 [Compound 14, 2-(4-Bromobenzyl)-1-methyl-5-nitro-1,2-dihydro-3H-indazol-3-one]	172 ± 2.3	48.6 ± 1.2	2.1	3.5
–	0.93	1.08	0.98	1.00	–	O=C(Cn1ccnc1[N+](=O)[O-])NCc1ccccc1 [BNZ, benznidazole, reference compound]	–	–	–	–
17.4 ± 1.3	0.85	0.91	1.01	0.88	–	CC1CS(=O)(=O)CCN1/N=C/c1ccc([N+](=O)[O-])o1 (stereo not shown) [NFX, nifurtimox, reference compound]	263.4 ± 2.2	21.5 ± 1.4	15.1	12.3
35.4 ± 1.1	0.82	1.37	0.96	1.10	211 to 213	Cn1c2ccc([N+](=O)[O-])cc2c(=O)n1Cc1ccccc1C(F)(F)F [Compound 17, 1-Methyl-5-nitro-2-[2-(trifluoromethyl)benzyl]-1,2-dihydro-3H-indazol-3-one]	166 ± 2.3	89.3 ± 1	4.7	1.9
29.5 ± 1.5	0.98	1.20	1.00	1.09	125 to 127	Cn1c2ccc([N+](=O)[O-])cc2c(=O)n1Cc1cccc(F)c1 [Compound 7, 2-(3-Fluorobenzyl)-1-methyl-5-nitro-1,2-dihydro-3H-indazol-3-one]	95.1 ± 1.1	41.2 ± 0.8	3.2	2.3
68.7 ± 1.7	1.02	1.12	0.91	1.07	155 to 157	CC(c1ccccc1)n1c(=O)c2cc([N+](=O)[O-])ccc2n1C (stereo not shown) [Compound 18, 1-Methyl-5-nitro-2-(1-phenylethyl)-1,2-dihydro-3H-indazol-3-one]	> 200	> 100	>2.9	–
40.3 ± 2	0.96	1.17	0.93	1.07	154 to 156	Cn1c2ccc([N+](=O)[O-])cc2c(=O)n1Cc1cccc(Cl)c1 [Compound 10, 2-(3-Chlorobenzyl)-1-methyl-5-nitro-1,2-dihydro-3H-indazol-3-one]	> 200	54.2 ± 1.1	>5.0	>3.7
30.3 ± 1.1	0.96	1.17	1.00	1.07	182 to 184	Cn1c2ccc([N+](=O)[O-])cc2c(=O)n1Cc1ccccc1Br [Compound 12, 2-(2-Bromobenzyl)-1-methyl-5-nitro-1,2-dihydro-3H-indazol-3-one]	72.4 ± 1.6	52.5 ± 1.3	2.4	1.4
> 100	1.03	1.15	0.91	1.09	139 to 141	COc1ccc(Cn2c(=O)c3cc([N+](=O)[O-])ccc3n2C)cc1 [Compound 16, 2-(4-Methoxybenzyl)-1-methyl-5-nitro-1,2-dihydro-3H-indazol-3-one]	> 200	> 100	–	–
32.9 ± 0.7	0.94	1.22	0.99	1.08	–	Cn1c2ccc([N+](=O)[O-])cc2c(=O)n1Cc1ccccc1F [Compound 6]	83.9 ± 0.9	56.4 ± 1.5	2.6	1.5
> 100	1.25	1.37	0.78	1.31	–	COc1nn(C)c2ccc([N+](=O)[O-])cc12 [Compound 23]	> 200	> 100	–	–
